# Laboratory results taken from US8541441B2, “Selective glycosidase inhibitors and uses thereof” (Simon Fraser University, priority 2008, dated 2013).
# “Also recorded” adds a separate entry of the source.
# Legend:
# O-GlcNAcase = molecular target: T1, O-GlcNAcase (Homo sapiens, UniProt O60502); experiment: Assay for determination of K1 values for inhibition of O-GlcNAcase activity; type: biochemical; settings: pNP-GlcNAc 0.5 mM, PBS buffer pH 7.4, 37° C., Dixon plots
# T1 sequence (O60502 1-916): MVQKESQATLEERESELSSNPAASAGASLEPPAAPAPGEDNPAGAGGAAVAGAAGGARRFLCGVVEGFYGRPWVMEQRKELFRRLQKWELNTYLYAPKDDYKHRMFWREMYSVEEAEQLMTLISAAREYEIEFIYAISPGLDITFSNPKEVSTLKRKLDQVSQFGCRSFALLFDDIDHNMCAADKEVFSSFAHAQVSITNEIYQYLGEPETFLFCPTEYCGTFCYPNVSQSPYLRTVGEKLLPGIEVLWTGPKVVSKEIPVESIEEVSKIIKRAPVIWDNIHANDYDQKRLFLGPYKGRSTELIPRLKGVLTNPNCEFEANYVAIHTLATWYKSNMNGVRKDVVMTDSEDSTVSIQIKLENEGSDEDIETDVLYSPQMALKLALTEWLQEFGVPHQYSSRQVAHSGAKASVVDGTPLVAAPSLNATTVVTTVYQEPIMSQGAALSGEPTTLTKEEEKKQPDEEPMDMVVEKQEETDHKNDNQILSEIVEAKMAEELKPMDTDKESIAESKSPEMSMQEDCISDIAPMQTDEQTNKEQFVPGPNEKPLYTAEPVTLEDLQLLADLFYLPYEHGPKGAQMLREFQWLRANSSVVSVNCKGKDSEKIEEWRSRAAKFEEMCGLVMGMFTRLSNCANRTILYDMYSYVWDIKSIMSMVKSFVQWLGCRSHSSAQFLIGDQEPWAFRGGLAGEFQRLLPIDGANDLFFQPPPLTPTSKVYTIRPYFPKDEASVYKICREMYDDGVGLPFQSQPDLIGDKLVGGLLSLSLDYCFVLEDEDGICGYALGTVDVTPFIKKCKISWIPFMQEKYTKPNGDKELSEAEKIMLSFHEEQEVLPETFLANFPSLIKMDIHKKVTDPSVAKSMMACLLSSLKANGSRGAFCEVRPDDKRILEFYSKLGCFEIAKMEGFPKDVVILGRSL
# Experimental: Assay for Determination of […] for Inhibition of O-GlcNAcase Activity Experimental procedure for kinetic analyses: Enzymatic reactions were carried out in PBS buffer (pH 7.4) using pNP-GlcNAc as a substrate (0.5 mM) and monitored continuously at 37° C. at 400 nm using a Cary 3E UV-VIS spectrophotometer equipped with a Peltier temperature controller. Reactions were pre-heated in a 500 μl, quartz cuvette for approximately 5 minutes followed by addition of 10 μL enzyme via syringe (final enzyme concentration 0.002 mg/mL). Reaction velocities were determined by linear regression of the linear region of the reaction progress curve between the first and third minutes. An inhibitor concentration range of ⅕ to 5 times K1 was used in each case. […] All K1 values are determined using linear regression of Dixon plots.
# 3T3-L1 cells = experiment: Western blot of cellular levels of O-GlcNAc-modified proteins in 3T3-L1 cells; type: cell-based; settings: 100 μM, 16 hours, anti-O-GlcNAc mAb CTD110.6, compared to control
# Experimental: FIGS. 1A-B show Western blots of proteins from 3T3-L1 cells cultured for 16 hours in the presence or absence of 100 μM of Compound 1 (Table 1). Incubation of 3T3-L1 cells with Compound 1 causes an increase in cellular levels of O-GlcNAc-modified proteins; plus signs (“+”) indicate presence of Compound 1, while minus signs (“−”) indicate absence of Compound 1. FIG. 1A: Western blot analysis of cellular levels of O-GlcNAc-modified proteins using anti-O-GlcNAc MAb CTD 110.6 followed by an anti-mouse IgG-HRP conjugate.
# Western Blot Analyses: 3T3-L1 adipocytes were treated with Compound 1 at 100 μM for 16 hours. Cells were harvested by adding 400 μL of 1% SDS with 50 mM beta-ME, boiling this for 10 minutes, using these lysates in subsequent Western blots. Briefly, samples were separated by SDS-PAGE (10% gels), transferred to nitrocellulose membrane (Bio-Rad), blocked for one hour at room temperature (RT) with 1% bovine serum albumin (BSA) in PBS containing 0.1% Tween-20 (PBS-T) and then subsequently probed with the appropriate primary antibody delivered in 1% BSA in PBS-T for overnight at 4° C. […]
smiles,measurement,setting,value
CC(=O)N[C@H]1CN2CC[C@H](O)[C@@H]2[C@@H](O)[C@@H]1O [Compound 1],Ki,O-GlcNAcase,670 nM
same,cellular levels of O-GlcNAc-modified proteins,3T3-L1 cells,Marked increases; also recorded: increase
